Among the data in PMC9354932, “Heme Interferes With Complement Factor I-Dependent Regulation by Enhancing Alternative Pathway Activation” (Frontiers in Immunology, 2022) are Kd values, retold here.

This test deals with T1, factor I (FI) (Homo sapiens, UniProt P05156).
T1 construct: gene CFI; purified human complement factor I, commercial (CompTech); mature heavy and light chains of one precursor; immobilised on CM5 chip for SPR
T1 sequence (P05156 19-335): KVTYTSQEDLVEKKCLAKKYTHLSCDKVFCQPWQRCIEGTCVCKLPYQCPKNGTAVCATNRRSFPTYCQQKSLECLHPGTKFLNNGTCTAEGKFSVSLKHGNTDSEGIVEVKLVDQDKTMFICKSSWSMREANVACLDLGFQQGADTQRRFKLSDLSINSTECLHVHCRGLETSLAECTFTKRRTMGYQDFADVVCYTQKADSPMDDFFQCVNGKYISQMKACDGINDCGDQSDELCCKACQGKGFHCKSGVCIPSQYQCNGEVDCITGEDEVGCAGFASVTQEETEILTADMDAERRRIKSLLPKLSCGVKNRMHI
T1 sequence (P05156 340-583): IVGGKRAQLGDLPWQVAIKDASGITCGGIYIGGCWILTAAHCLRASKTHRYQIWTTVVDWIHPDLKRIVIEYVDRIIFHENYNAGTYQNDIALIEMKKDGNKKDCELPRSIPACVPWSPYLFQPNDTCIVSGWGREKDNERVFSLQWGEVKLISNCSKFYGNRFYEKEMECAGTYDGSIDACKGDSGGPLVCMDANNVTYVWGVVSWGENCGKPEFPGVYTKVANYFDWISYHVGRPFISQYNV
As to the kind of experiment: SPR (Biacore […]), factor I immobilised on CM5 chip. Type of test: binding. The settings on record: read-out: KD (apparent). (In general: Surface plasmon resonance follows binding to a sensor surface in real time, without labels.)

In the case of `C=CC1=C(C)C2=Cc3c(C=C)c(C)c4[n]3[Fe]([Cl])[n]3c(c(C)c(CCC(=O)O)c3=CC3=NC(=C4)C(C)=C3CCC(=O)O)=CC1=N2` [heme], the Kd is 11.5 µM.
